{
  "source": "paper PMC10179080",
  "about": "“In Vivo and In Vitro Characterization of Close Analogs of Compound KA-11, a New Antiseizure Drug Candidate” (International Journal of Molecular Sciences, 2023)",
  "key": {"CYP3A4": {"biological_target": "T1, CYP3A4 (Homo sapiens, UniProt P08684)", "T1 construct": "purchased Promega, Madison, WI, USA", "T1 sequence (P08684 whole entry)": "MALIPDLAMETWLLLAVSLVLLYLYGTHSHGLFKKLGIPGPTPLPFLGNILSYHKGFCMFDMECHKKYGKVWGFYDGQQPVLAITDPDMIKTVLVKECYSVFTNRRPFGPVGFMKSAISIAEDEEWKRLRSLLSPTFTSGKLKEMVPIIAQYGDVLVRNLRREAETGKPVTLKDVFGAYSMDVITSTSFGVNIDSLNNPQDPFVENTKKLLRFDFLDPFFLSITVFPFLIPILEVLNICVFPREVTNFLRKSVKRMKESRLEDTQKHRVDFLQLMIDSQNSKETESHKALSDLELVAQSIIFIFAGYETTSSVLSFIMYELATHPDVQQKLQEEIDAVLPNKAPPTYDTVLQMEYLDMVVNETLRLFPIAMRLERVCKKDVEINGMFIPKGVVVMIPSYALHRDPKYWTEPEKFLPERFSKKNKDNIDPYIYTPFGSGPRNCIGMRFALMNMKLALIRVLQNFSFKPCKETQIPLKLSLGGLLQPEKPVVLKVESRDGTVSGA", "test": "CYP3A4 P450-Glo assay", "assay_type": "in vitro ADME", "details": "10 µM", "description": "(§1) The assays and protocols used for evaluating the KA-232 ADME-Tox parameters were similar to those described previously for compound KA-11 [6].\n(§2) Figure 9 The effect of KA-232 and the reference drug ketoconazole (KE) on CYP3A4 activity (A). The effect of KA-232 and the reference drug quinidine (QD) on CYP2D6 activity (B). The effect of KA-232 and the reference cytostatic drug doxorubicin (DX) on the HepG2 cell line (C) and the SH-SY5Y cell line (D) viability. Statistical significance (* p < 0.05, **** p < 0.0001) was analyzed by Graph Pad Prism 8 software using one-way ANOVA and Bonferroni’s Multiple Comparison Post Test."}, "neuroblastoma SH-SY5Y": {"tested_on": "neuroblastoma SH-SY5Y", "test": "Neurotoxicity, SH-SY5Y cell viability", "assay_type": "cell-based, human", "description": "as §1, §2"}, "[1]": {"tested_on": "Calcium Cav1.2 channels (dihydropyridine site, antagonist radioligand)", "test": "Radioligand binding, Cav1.2 dihydropyridine site", "parameters": "species or system rat", "protocol": "Dysfunction of both sodium and calcium ion channels is known to be one of the crucial reasons behind the pathogenesis of seizures. Consequently, these ion channels are molecular targets for several clinically important ASDs such as lacosamide, lamotrigine, carbamazepine, oxcarbazepine and compounds currently under preclinical and clinical studies. Thus, for KA-228 and KA-232, we tested herein their binding profile toward the aforementioned ion channels at concentrations of 10 and 100 µM (Table 3). […] Apart from in vitro studies focused on explaining the mechanism of action, KA-232 was additionally tested for its interaction with the potassium channel (hERG) which is recognized as one of the most important ‘off-targets’ responsible for harmful arrhythmogenic activity. Thus, the interaction of potential drug candidates with hERG must be excluded at an early stage of development.\nBinding studies were carried out commercially in Eurofins Laboratories (Poitiers, France or New Taipei City, Taiwan)."}, "[2]": {"tested_on": "6-Hz-induced psychomotor seizures in mice", "test": "6 Hz (32 mA) seizure model", "assay_type": "in vivo", "protocol": "The experiments were conducted on adult male albino Swiss mice weighing 22–26 g. The animals were kept in colony cages under standardized laboratory conditions: natural light–dark cycle 12/12 h, temperature 20–24 °C, air humidity 45–65% and free access to tap water and food (chow pellets). After 7 days of adaptation to laboratory conditions, the animals were randomly assigned to experimental groups consisting of 8 mice. The experimental procedures described herein were approved by the Local Ethics Committee in Lublin, Poland (approval numbers: 71/2020 and 13/2021), and were conducted in accordance with EU Directive 2010/63/EU for animal experiments. All efforts were made to minimize animal suffering and to use only the number of animals necessary to produce reliable scientific data according to the 3Rs rule.\nAll substances (except PTZ and tetracaine hydrochloride dissolved in water for injections) were suspended in a 1% solution of Tween 80 (Sigma-Aldrich, Saint Louis, MO, USA) in water for injections (Baxter, Warszawa, Poland) or 0.9% NaCl. All drugs were injected intraperitoneally (i.p.) 30 min before all seizure models with 1 mL syringes as a single injection, in a volume of 10 mL/kg. The pretreatment time (30 min) before testing for KA-228 and KA-232 was chosen based on the time to peak of maximum anticonvulsant activity of KA-11 from our previous studies.\nThe 6-Hz-induced psychomotor seizures in mice were evoked by current (6 Hz, 0.2 ms rectangular pulse width, 32 mA, 3 s duration) generated by an S48 Square Pulse Stimulator and CCU1 Constant Current Unit (Grass Technologies, West Warwick, RI, USA). The animals were administered with increasing doses of KA-228 and KA-232, and the anticonvulsant activity of each drug was evaluated as the ED50. This experimental procedure has been described in detail in our previous studies.\nThe ED50 or TD50 values for tested substances in the acute animal models of seizures were calculated using the computer log-probit analysis. Subsequently, the ED50 and TD50 values (±SEM) were statistically analyzed using one-way analysis of variance (ANOVA) followed by the post hoc Dunnett’s test for multiple comparisons. Differences among values were considered statistically significant if p < 0.05. GraphPad Prism version 8 for Windows (GraphPad Software, San Diego, CA, USA) was used as a statistical software program. The results obtained from the acute ivPTZ test and grip strength test were evaluated by a Student’s t test. Fisher’s exact probability test was used to analyze protection from tonic forelimb and hindlimb extension in the ivPTZ test."}, "[3]": {"tested_on": "neuromuscular strength in mice", "test": "Grip strength test", "assay_type": "in vivo", "protocol": "The experiments were conducted on adult male albino Swiss mice weighing 22–26 g. The animals were kept in colony cages under standardized laboratory conditions: natural light–dark cycle 12/12 h, temperature 20–24 °C, air humidity 45–65% and free access to tap water and food (chow pellets). After 7 days of adaptation to laboratory conditions, the animals were randomly assigned to experimental groups consisting of 8 mice. The experimental procedures described herein were approved by the Local Ethics Committee in Lublin, Poland (approval numbers: 71/2020 and 13/2021), and were conducted in accordance with EU Directive 2010/63/EU for animal experiments. All efforts were made to minimize animal suffering and to use only the number of animals necessary to produce reliable scientific data according to the 3Rs rule. The grip strength test was carried out according to the methodology described by Socała et al.. Neuromuscular strength was measured just before the ivPTZ seizure threshold test to limit the number of animals used. The ED50 or TD50 values for tested substances in the acute animal models of seizures were calculated using the computer log-probit analysis. Subsequently, the ED50 and TD50 values (±SEM) were statistically analyzed using one-way analysis of variance (ANOVA) followed by the post hoc Dunnett’s test for multiple comparisons. Differences among values were considered statistically significant if p < 0.05. GraphPad Prism version 8 for Windows (GraphPad Software, San Diego, CA, USA) was used as a statistical software program. The results obtained from the acute ivPTZ test and grip strength test were evaluated by a Student’s t test. Fisher’s exact probability test was used to analyze protection from tonic forelimb and hindlimb extension in the ivPTZ test. Figure 8 Effects of KA-228 and KA-232 on neuromuscular strength in mice. KA-228 and KA-232 were administered i.p., 30 min before the test. Control animals received vehicle. […] The statistical significance was evaluated using the Student’s t test: * p < 0.05 vs. the vehicle-treated group (GraphPad Prism 8)."}, "in vitro": {"test": "in vitro", "details": "PAMPA", "procedure": "Pre-coated PAMPA Plate System Gentest™ was purchased from Corning (Tewksbury, MA, USA). […] The luminescent signal and the absorbances were measured by using a microplate reader EnSpire PerkinElmer (Waltham, MA, USA). The LC/MS/MS analyses used in PAMPA and metabolic stability assays were obtained on Waters ACQUITY™ TQD system (Waters, Milford, CT, USA)."}},
  "data": [
    {"compound": "CC(C(=O)N1CCN(c2cccc(C(F)(F)F)c2)CC1)N1C(=O)CC(N(C)C)C1=O.Cl", "note": "(stereo not shown) [KA-232, 3-(Dimethylamino)-1-(1-oxo-1-(4-(3-(trifluoromethyl)phenyl)piperazin-1-yl)propan-2-yl)pyrrolidine-2,5-dione hydrochloride]", "values": [
      {"measurement": "CYP3A4 activity (% of control ± SD)", "setting": "CYP3A4", "result": "86.77 ± 5.71 % of control"},
      {"measurement": "SH-SY5Y viability (% of control ± SD)", "setting": "neuroblastoma SH-SY5Y; 10 µM", "result": "99.44 ± 5.89 % of control"},
      {"measurement": "neurotoxic effect on SH-SY5Y cell line", "setting": "neuroblastoma SH-SY5Y; all used doses", "result": "no neurotoxic effect"},
      {"measurement": "% Inhibition of Control Specific Binding", "setting": "[1]; 10 µM", "result": "−6.3", "unit": "%"},
      {"measurement": "% Inhibition of Control Specific Binding", "setting": "[1]; 100 µM", "result": 18.5, "unit": "%"},
      {"measurement": "ED50", "setting": "[2]; Mus musculus, ip, 30 min before test, read-out: ED50 6 Hz ± SD", "result": "26.5 ± 33.5", "unit": "mg/kg"},
      {"measurement": "TI (TD50/ED50), 6 Hz", "setting": "[2]; i.p.", "result": 6.14},
      {"measurement": "effect on neuromuscular strength (grip strength)", "setting": "[3]; 50 mg/kg i.p., 30 min before test", "result": "did not produce any significant effects"},
      {"measurement": "effect on neuromuscular strength (grip strength)", "setting": "[3]; 100 mg/kg i.p., p < 0.05", "result": "slightly decreased"},
      {"measurement": "Papp at 5 h", "setting": "in vitro", "result": "10.2 ± 1.65", "unit": "×10⁻⁶ cm/s"}
    ]}
  ]
}
